Experimental data published in patent US4973679A, “Process for oligonucleo tide synthesis using phosphormidite intermediates” (University Patents, Inc., priority 1986, dated 1990).

Test: Lewis acid (ZnBr2) hydrolysis rates of triarylmethyl groups attached to the 5'-hydroxyl of deoxynucleosides
Type: physicochemical
Settings: 0.08 M ZnBr2 in nitromethane; tlc, HCl vapors
Procedure: These compounds are listed in Tables IV and V. The 5'-triarylmethyldeoxynucleosides were treated with protic and Lewis acids using carefully controlled conditions. […] The rates are more variable -with protic acids.
The Lewis Acid Hydrolysis Rates of Triarylmethyl Groups
^1 Reaction conditions were 0.08 M ZnBr2 in nitromethane.
Aliquots were removed from the reaction solution, quenched with ammonium
acetate and analyzed visually after tlc and exposure to HCl vapors. Time

Compound | t1/2 in ZnBr2 [s]
COc1ccc(C(OC[C@H]2O[C@@H](n3cnc4c(NC(=O)c5ccccc5)ncnc43)C[C@@H]2O)(c2ccccc2)c2ccc(OC)cc2)cc1 [R1 = R2 = c; R3 = a; A] | 20
COc1ccc(C(OC[C@H]2O[C@@H](n3cc(C)c(=O)[nH]c3=O)C[C@@H]2O)(c2ccccc2)c2ccc(OC)cc2)cc1 [R1 = R2 = c; R3 = a; T] | 60
COc1ccccc1C(OC[C@H]1O[C@@H](n2ccc(NC(=O)c3ccccc3)nc2=O)C[C@@H]1O)(c1ccccc1OC)c1cccc2ccccc12 [R1 = R2 = b; R3 = n; C] | 30
Cc1ccc(C(OC[C@H]2O[C@@H](n3cnc4c(NC(=O)c5ccccc5)ncnc43)C[C@@H]2O)(c2ccccc2)c2ccccc2)cc1 [R1 = h; R2 = R3 = a; A] | 45
COc1ccccc1C(OC[C@H]1O[C@@H](n2cc(C)c(=O)[nH]c2=O)C[C@@H]1O)(c1ccccc1OC)c1cccc2ccccc12 [R1 = R2 = b; R3 = n; T] | 30
COc1ccccc1C(OC[C@H]1O[C@@H](n2cnc3c(=O)[nH]c(NC(=O)C(C)C)nc32)C[C@@H]1O)(c1ccccc1)c1ccccc1OC [R1 = R2 = b; R3 = a; G] | 20
Cc1cn([C@H]2C[C@H](O)[C@@H](COC(c3ccccc3)(c3ccc(F)cc3)c3cccc4ccccc34)O2)c(=O)[nH]c1=O (stereo partly shown) [R1 = n; R2 = e; R3 = a; T] | 60
COc1ccc(C(OC[C@H]2O[C@@H](n3ccc(NC(=O)c4ccccc4)nc3=O)C[C@@H]2O)(c2ccccc2)c2ccc(OC)cc2)cc1 [R1 = R2 = c; R3 = a; C] | 45
COc1ccc(C(OC[C@H]2O[C@@H](n3cnc4c(=O)[nH]c(NC(=O)C(C)C)nc43)C[C@@H]2O)(c2ccccc2)c2ccc(OC)cc2)cc1 [R1 = R2 = c; R3 = a; G] | 20
COc1ccc(C(OC[C@H]2O[C@@H](n3cc(C)c(=O)[nH]c3=O)C[C@@H]2O)(c2ccccc2)c2cccc3ccccc23)cc1 (stereo partly shown) [R1 = n; R2 = c; R3 = a; T] | 60
